In ChEMBL document CHEMBL3507680, “University of Dundee, Gates Library screen for HepG2 cell viability”:

Test: Human HepG2 cell viability assay in 384 well format
Assay type: toxicity, cell-based
Design: dose 125 nL, time 70.5 hour; concentration not given beside the values
Settings: HepG2 cells, read-out: Inhibition

Structure (SMILES) | cytotoxicity at 70.5 h
CN1CCN(C[C@H]2OC[C@@H]3CCN(Cc4ccsc4)C[C@@H]32)CC1 | -0.843%
Cc1cnn(CC2CCCN2c2ncnc3ccsc23)c1 (centres undefined) | 5.5%
c1cc(C2CCN(c3cncnc3)CC2)ccn1 | 1.76%
COC(=O)C1CN(Cc2ccn(-c3ccc(F)cc3)n2)CCO1 (centres undefined) | 5.92%
Cc1nnsc1C(=O)N1CCCC(c2nccn2Cc2cscn2)C1 (centres undefined) | -0.672%
CCCC(O)CN1CC(C)(C)CN(C(=O)CCc2ccccc2)CC1=O (centres undefined) | 19.5%
CN(Cc1ccsc1)C(=O)Nc1ccc(=O)n(C)c1 | -6.48%
CNS(=O)(=O)Cc1cccc(CNCc2ccsc2)c1 | -8.06%
CN(C)C(=O)COCc1cncc2c1CCN(Cc1nccn1C)C2 | -7.66%
Fc1cnc(N2CC[C@@H]3O[C@H](COCc4ccccn4)CC[C@@H]32)nc1 | -3.08%
c1cncc(C2COC3(CCN(Cc4ccsc4)CC3)C2)c1 (centres undefined) | -3.18%
O=C(O)C(c1ccc2c(c1)OCCO2)N1CCSCC1 (centres undefined) | -3.24%
CCn1cc(C#N)c(=O)c2cc(Br)ccc21 | -13.9%
O=C(C(c1ccccc1)S(=O)(=O)c1ccccn1)N1CCCCC1 (centres undefined) | -7.07%
Cc1ncc2c(n1)CN(Cc1nc(Cc3ccccc3)no1)CC2 | -8.87%
CCCS(=O)(=O)N1CC(=O)N(Cc2ccccc2OC)CC(O)C1 (centres undefined) | 18.5%
N#Cc1ccc(N2CC3(CCN(c4nccs4)C3)C2)nc1 | 5.37%
COc1ncnc2c1CCN(C(=O)NCc1cccnc1)CC2 | 1.49%
CCNc1ncc(C(=O)Nc2nnc(N3CCCCC3)[nH]2)s1 | -2.41%
O=C(C1=CCCC1)N1CC[C@]2(C[C@H](OCc3cccnc3)CO2)C1 | -12.5%
CN(Cc1ccccn1)c1nccc(N2CCN[C@H]3CS(=O)(=O)C[C@H]32)n1 | 8.37%
COCC1CN(C(=O)Cc2ccccn2)Cc2ncn(C)c21 (centres undefined) | -2.47%
Cn1ncc2c1NC(=O)CC2c1ccccc1Cl (centres undefined) | -5.68%

Structure (SMILES) | cytotoxicity at 70.5 h
CC1CN(C(=O)Nc2cc(C(F)(F)F)c[nH]c2=O)CC(C)(C)O1 (centres undefined) | -8.86%
CC(Nc1cccc2c1OCCO2)C(=O)Nc1ccc(Cl)cc1 (centres undefined) | 2.81%
CN(Cc1ccncc1)CC1CCCN(CCc2ccc(Cl)cc2)C1 (centres undefined) | -0.313%
CN(Cc1ccco1)C(=O)C1=NN(C)C(=O)CC1 | -3.82%
CN(C)c1cc(N2CCN(c3ccccn3)CC2)ncn1 | 22.1%
c1ccc(CN2CCC(c3nccnc3-n3ccnc3)CC2)cc1 | -14.9%
FC1(F)CCNCC12CCN(c1ccccn1)C2 (centres undefined) | 9.9%
Cc1c(C(=O)N2CCC3(CCCNC3=O)C2)sc2nc[nH]c(=O)c12 (centres undefined) | -7.46%
CC(C)n1nc(CN2CCCC2=O)c2c1CN(C(=O)c1ccc[nH]1)C2 | -5.63%
Cc1cc2c(N)nc(=O)n(CC(=O)Nc3ccccc3)c2s1 | 8.01%
Cc1nc(N)ncc1C(=O)N1CCCC(CCc2ccccc2F)C1 (centres undefined) | 17%
CC(C)[C@H](NC(=O)N1CCC(Cc2ccccc2)CC1)C(=O)O | -8.02%
CC(C)CN1CCc2[nH]cnc2C12CCN(C(=O)c1cc[nH]n1)CC2 | -5.86%
COc1cccc(OCC(=O)N(C)c2cccnc2)c1 | 24%
CCn1cc(CNC2CC(=O)N(CCc3cccc(Cl)c3)C2)cn1 (centres undefined) | -3.19%
COCC(NC(=O)NCc1cccc(Cl)c1)c1ccco1 (centres undefined) | -5.77%
Cc1cccc(CNc2nnc(C(C)C)o2)c1 | 0.308%
COc1ccc(-c2noc(C(N)CCSC)n2)cc1OC (centres undefined) | -3.12%
CCn1nc(C)cc1C(=O)N1CC[C@H](OC)[C@H]2CN(CC3CC3)C[C@H]21 | 7.23%
CN(C)C(=O)COC[C@]12COC[C@H]1CN(CC1CCC1)C2 | -6.61%
Cc1ccc2snc(C(=O)N3CCN(C(=O)NCCC(C)C)CC3)c2c1 | -6.08%
Cc1cc(C)nc(Nc2cc(C)nc(C3CCN(C(C)C)C3)n2)n1 (centres undefined) | -5.15%
CCc1ccc(CN2C[C@@H](C(=O)O)[C@H](c3ccccc3OC)C2)o1 | -1.56%

Structure (SMILES) | cytotoxicity at 70.5 h
CN(CC(=O)N1CCOCC(CO)C1)Cc1ccccn1 (centres undefined) | -12.5%
CCCNC(=O)CCNc1cncc(-n2nc(C)cc2C)n1 | -4.63%
O=C(c1ccn(COc2ccc(F)cc2)n1)N1CCCCCC1 | -3.63%
O=C(c1cccc(NCCO)c1)N1CCOCC1 | 6.48%
Cc1ncsc1C(=O)N1CCCC(n2cncn2)C1 (centres undefined) | -13.3%
O=S(=O)(NCC1CCN(CCN2CCOCC2)C1)c1ccccc1F (centres undefined) | 13.9%
c1cncc(O[C@H]2COCCN(CC3CC3)C2)c1 | 0.0943%
Cc1cc(N2CCCN(C(=O)Cc3csc(C)n3)CC2)ccn1 | -12.4%
COc1cnc(N2CC(N3CCOCC3)C2)nc1-c1ccnn1C | 6.03%
CN(Cc1cn(-c2ccccc2)nn1)C1CCCN(c2cccnn2)C1 (centres undefined) | -3.67%
CCOC(=O)Cn1cccc(S(=O)(=O)N2CCCC2)c1=O | -26.6%
CC(=O)N1CCC(N2CCOC[C@H]2c2nc(-c3ccccc3)c[nH]2)CC1 | -2.43%
Cc1ccnc(CC(C)N(C)c2cc(CN)nc(C)n2)c1 (centres undefined) | -5.59%
Cc1ncsc1C(=O)N1CCn2nc(CN3CCSCC3)cc2C1 | -1.17%
CN(C)C(C(=O)N1CC(Oc2ccccc2F)C1)c1ccccc1F (centres undefined) | 12.3%
Cc1nc(CN2CCCN(CC(=O)Nc3cccnc3)CC2)no1 | 7.78%
CN(C)c1cc(C(=O)N2CCCCC2Cn2cccn2)ccn1 (centres undefined) | -1.9%
CC1c2ncc(Cn3cccn3)n2CCN1S(C)(=O)=O (centres undefined) | 19.8%
COCCOCCNC(=O)N1CCN(c2ccccc2C#N)CC1 | -2.61%
CN(C)C(=O)CCC[S+]([O-])Cc1ccc(Cl)c(Cl)c1 (centres undefined) | -3.04%
Fc1ccccc1CN1CCC[C@@H](Cn2nnc(-c3cccs3)n2)C1 | -3.35%
O=C(CCc1cn[nH]c1)N1C[C@H](CO)C[C@H](CN2CCOCC2)C1 | -8.81%
CCc1ccc2c(C3CN(C(C)=O)C3)ncn2c1 | -3.55%

Structure (SMILES) | cytotoxicity at 70.5 h
Cc1cnc(NC2CCc3c(ccc(=O)n3C)C2)nc1 (centres undefined) | -4.77%
COc1cc2c(nn1)CCN(Cc1nc(Cc3ccccc3)no1)C2 | 2.14%
Cc1ccc(-c2noc(CN3CCn4c(nnc4C4CC4)C3)n2)cc1 | -16%
CN1CCN(C(=O)[C@H]2CC[C@@H]3[C@@H](CCN3Cc3ccsc3)O2)CC1 | -6.96%
COc1cc(CN2CCCC23CCN(c2ccccn2)CC3)ccc1F | -0.0865%
CCCN(CCC)S(=O)(=O)NCCc1cc(C)ccc1OC | -8.2%
CN(Cc1cccnc1)C1CC2(CCN(C(=O)c3cnccn3)CC2)C1 | -7.42%
CC(C)C(O)C1(CNC(=O)Nc2ccc(CN3CCOC3=O)cc2)CC1 (centres undefined) | -11.3%
COc1ccccc1CC1CCN(C(=O)CCN2CCOC2=O)CC1 | 2.48%
Cc1cnn(CC2CCCN2C(=O)c2ccc(-n3cccn3)nc2)c1 (centres undefined) | -1.39%
Cc1cnc(NC(=O)N2CCCC2)s1 | -12%
O=C(O)CC(CC(=O)NCCc1cccs1)c1cccs1 (centres undefined) | 3.06%
COC1CCN(c2ccc(NC(=O)C3CC3)cc2C(F)(F)F)CC1 | -4.49%
Cc1nc(CCN)cc(N2CCCN(C(=O)c3ccco3)CC2)n1 | -4.43%
CC(C)CCN(C)C(=O)c1cnc2c(cnn2CC(C)C)c1 | 1.58%
CC(C)CC(=O)N1CCC2(CC1)OCCO2 | -6.38%
CC(C)N1CCC(Cn2cc(C(N)=O)cn2)CC1 | 11.9%
Cc1ncc(-c2ccnc(N3CCCCCC3)n2)c(-c2cccnc2)n1 | -10.6%
CNC(=O)CN1CCOCC12CCN(C(=O)c1ccccc1)CC2 | -5.33%
COc1ccnc(N2CCN(C(=O)CN3CCCC3=O)CC2)n1 | 0.556%
CCc1cc(=O)[nH]c(-c2ccc(NC(C)COC)nc2)n1 (centres undefined) | 2.74%
CC(C)N1CCOCC2(CCN(c3cnccn3)CC2)C1 | -11.1%
O=C(CNc1cc(F)ccc1OCC1CCCO1)N1CCOCC1 (centres undefined) | -0.218%

Structure (SMILES) | cytotoxicity at 70.5 h
O=C1[C@@H]2CN(c3ncnc4sccc34)C[C@]2(C(=O)O)CN1CC1CC1 | -11.3%
CN(CC1CCCC1)C(=O)c1cn(C)nc1-c1cccnc1 | -3.43%
CN(CC1CCCCC1)C(=O)c1cn(C)nc1-c1cccnc1 | 3.52%
CC(CO)(NCc1noc(Cc2ccccc2)n1)C1CCCCC1 (centres undefined) | -0.885%
CCN1CCCC(c2c(-c3ccccc3)ncn2Cc2csc(N)n2)C1 (centres undefined) | -0.765%
Cc1cccc2nc(CN3CCCC(Cn4ccnn4)C3)cc(=O)n12 (centres undefined) | 2.5%
CCCn1[nH]cc/c1=N\C(=O)CN1CCc2cnc(CC)nc2C1 | 2.85%
CN1CCN(c2ccc(NCc3ccc(OC(F)(F)F)cc3)cn2)CC1 | -11.2%
Cc1ccc(O)c(C(=O)N2CCCC(NC(=O)C(C)C)C2)c1 (centres undefined) | -6.92%
Cc1cnc(C2(C)CCN(Cc3cscn3)CC2)s1 | -6.19%
CC(C)Cc1nc(CS(=O)(=O)C(C)C(=O)N2CCOCC2)no1 (centres undefined) | -7.75%
Cc1cnn(CC2CN(Cc3nc4ccccc4n3C)CCO2)c1 (centres undefined) | 9.31%
CC(C)C(C)(C#N)NC(=O)Cn1cc(I)cn1 (centres undefined) | -3.37%
CN(CC(=O)N1CC(Oc2ccccc2Cl)C1)Cc1ccncc1 | 12.8%
CC(=O)N[C@@H]1C[C@H](Cc2ccccc2)O[C@H](c2ccc(C(=O)O)cc2)C1 | -6.19%
CCCNC(=O)CCC(=O)Nc1ccc(-n2cncn2)c(F)c1 | 36%
CN(Cc1nnc(C2CC2)o1)C1CCCN(c2cccnn2)C1 (centres undefined) | -3.05%
O=C(Nc1ncnc2c1CCC2)c1ccc2c(c1)OCO2 | 1.01%
CCC(CNC(=O)c1cc(OC)ccc1Br)N1CCc2ccccc2C1 (centres undefined) | 7.55%
CN(C)c1cc(CNC(=O)Nc2nncs2)ccn1 | -0.639%
Cc1cnc(N2CCc3c(CN(C)Cc4ccco4)cncc3C2)nc1 | -5.82%
CC[C@H](C)[C@H](N)C(=O)Nc1nc(-c2cnc(N3CCOCC3)nc2)cs1 | -1.59%
